Data from ChEMBL document CHEMBL1800006, “Azaphilones and p-terphenyls from the mangrove endophytic fungus Penicillium chermesinum (ZH4-E2) isolated from the South China Sea” (J Nat Prod, 2011).

How the values were obtained:
Acetylcholinesterase = Acetylcholinesterase (Electrophorus electricus, UniProt O42275); assay: Inhibition of electric eel AChE using acetylthiocholine chloride as substrate after 15 mins by Ellman's method
[1] = Inhibition of alpha glucosidase by UV-[…] spectroscopy

Acetylcholinesterase, sequence (O42275 whole entry): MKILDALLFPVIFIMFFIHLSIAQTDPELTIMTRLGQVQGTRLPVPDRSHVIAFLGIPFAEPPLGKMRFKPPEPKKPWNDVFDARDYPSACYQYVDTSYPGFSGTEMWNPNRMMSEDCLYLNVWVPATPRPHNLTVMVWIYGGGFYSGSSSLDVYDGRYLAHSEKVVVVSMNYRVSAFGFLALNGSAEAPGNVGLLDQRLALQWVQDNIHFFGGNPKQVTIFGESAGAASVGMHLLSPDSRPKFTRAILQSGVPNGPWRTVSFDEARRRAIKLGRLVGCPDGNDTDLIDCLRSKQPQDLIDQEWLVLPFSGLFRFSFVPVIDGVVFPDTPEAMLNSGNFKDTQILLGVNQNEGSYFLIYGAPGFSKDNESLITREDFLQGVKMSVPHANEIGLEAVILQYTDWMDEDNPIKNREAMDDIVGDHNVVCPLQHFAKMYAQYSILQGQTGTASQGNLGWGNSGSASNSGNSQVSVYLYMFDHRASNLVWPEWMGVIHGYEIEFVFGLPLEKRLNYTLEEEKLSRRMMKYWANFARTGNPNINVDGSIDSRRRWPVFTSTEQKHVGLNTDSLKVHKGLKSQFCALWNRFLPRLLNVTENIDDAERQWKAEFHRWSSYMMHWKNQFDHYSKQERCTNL

Compound `COc1c(-c2ccc(O)cc2)cc(O)c2c1oc1cc(O)c(O)cc12` has an IC50 (Acetylcholinesterase) of 7.8 µM and an IC50 [1] of over 100 µM.
Compound `COc1c(-c2ccc(O)cc2)cc(O)c(-c2ccc(O)cc2)c1O` has an IC50 (Acetylcholinesterase) of over 100 µM and an IC50 [1] of 0.9 µM.
With `O=c1c(-c2ccc(O)cc2)coc2cc(O)cc(O)c12` [GENISTEIN] the IC50 [1] was 9.8 µM.
In the case of `COc1c(-c2ccc(O)c(O)c2)cc(O)c(-c2ccc(O)c(O)c2)c1O`, the IC50 (Acetylcholinesterase) is reported as over 100 µM and the IC50 [1] is reported as 2.9 µM.
For `CC[C@H](C)C(=O)C[C@H]1C2=COC(C)=CC2=CC(=O)[C@]1(C)O` [CHERMESINONE A], the IC50 (Acetylcholinesterase) was over 100 µM and the IC50 [1] was 24.5 µM.
`COc1c(-c2ccc(O)c(O)c2)cc(O)c2c1oc1cc(O)c(O)cc12` [6'-DESMETHYLCANDIDUSIN B] gave an IC50 (Acetylcholinesterase) of 5.2 µM and an IC50 [1] of over 100 µM.
`COc1c(-c2ccc(O)cc2)cc(O)c(-c2ccc(O)c(O)c2)c1O` gave an IC50 (Acetylcholinesterase) of over 100 µM and an IC50 [1] of 4.9 µM.
For `CC[C@H](C)C(=O)[C@H]1C(=O)O[C@@]2(C)C(=O)C=C3C=C(C)O[C@H](O)[C@H]3[C@H]12` [CHERMESINONE C], the IC50 (Acetylcholinesterase) was over 100 µM and the IC50 [1] was over 100 µM.
In the case of `CC[C@H](C)C(=O)[C@H]1C(=O)O[C@@]2(C)C(=O)C=C3C=C(C)OC=C3[C@H]12` [CHERMESINONE B], the IC50 (Acetylcholinesterase) is reported as over 100 µM and the IC50 [1] is reported as over 100 µM.
